The text below walks through data of patent publication US10005817B2, “Peptide pharmaceuticals” (EUMEDERIS PHARMACEUTICALS, INC., priority 2012, dated 2018).

The target of one series is T1, PTH receptor (PTHR1) (Homo sapiens, UniProt Q03431).
T1 construct: Cerep SA
T1 sequence (Q03431 27-593): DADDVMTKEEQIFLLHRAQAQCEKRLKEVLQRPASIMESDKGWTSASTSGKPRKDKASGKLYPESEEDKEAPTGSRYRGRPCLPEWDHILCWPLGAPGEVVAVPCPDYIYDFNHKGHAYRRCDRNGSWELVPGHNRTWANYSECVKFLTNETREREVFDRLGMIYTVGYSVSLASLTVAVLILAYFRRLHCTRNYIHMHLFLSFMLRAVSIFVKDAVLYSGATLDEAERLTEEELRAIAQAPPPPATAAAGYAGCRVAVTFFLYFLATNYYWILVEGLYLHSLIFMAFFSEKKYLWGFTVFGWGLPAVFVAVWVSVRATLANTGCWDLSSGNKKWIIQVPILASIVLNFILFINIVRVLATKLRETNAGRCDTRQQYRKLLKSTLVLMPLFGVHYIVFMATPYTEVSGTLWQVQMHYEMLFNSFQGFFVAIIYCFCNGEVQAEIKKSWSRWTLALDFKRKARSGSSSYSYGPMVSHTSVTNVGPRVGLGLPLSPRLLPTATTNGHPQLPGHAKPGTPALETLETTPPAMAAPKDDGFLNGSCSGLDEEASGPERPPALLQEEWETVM
The series can be described thus: PTH1 cellular assay, cAMP, agonist mode (SaOS2 cells, Cerep). The format is cell-based. As for the experimental part:
Compounds were weighed precisely in an amount of approximately 1 mg and assayed in standard cellular assays (cerep SA). The readout is the amount of cAMP generated in the cells treated with the test compounds, in either agonist or antagonist mode.
Compounds were dissolved in water and diluted in assay buffer containing 1% bovine serum albumin.

The test system of another series is blood PO4 levels in rats. The series can be described thus: blood phosphate levels in rats after single s.c. injection. The format is in vivo, rat. The text has this:
Following the method of Frolik, C.

In the next series the test system is blood Ca levels in rats. The settings on record: sc, 320 micrograms per kg (G4), at 5 hrs.
Series [1] has as its target T2, mu opioid receptor (Homo sapiens, UniProt P35372).
T2 construct: Cerep
The series can be described thus: mu opioid receptor cellular assay (MOP), agonist mode, cAMP readout (Cerep). The format is cell-based. The procedure:
(§1) Compounds were weighed precisely in an amount of approximately 2 mg and assayed in standard cellular assays by the contract research organization Cerep, Inc. (Pullman, Wash.) as executed at their subsidiary, Cerep SA (Le Bois l'Eveque, France). The readout is the amount of cAMP generated in the cells treated with the test compounds, in either agonist or antagonist mode. The assays used were the mu opioid receptor cellular assay (MOP in agonist and antagonist mode), the delta2 opioid receptor cellular assay (DOP in agonist and antagonist mode) and the kappa opioid receptor cellular assay (KOP in agonist and antagonist mode). The assays used are described in Wang, J. B., et al. (1994) FEBS Lett 338: 217-222, Law, P. Y. and Loh, H. H. (1993) Mol Pharmacol 43: 684-693, and Avidor-Reiss, T., et al. (1995) FEBS Lett 361: 70-74. The stimulant for the cells in the DOR antagonist assay was 3×10E-8M DPDPE, a well-accepted DOR literature standard.

For series [2], the target named is T2, mu opioid receptor. The series can be described thus: mu opioid receptor cellular assay (MOP), antagonist mode, cAMP readout (Cerep). The format is cell-based. The procedure: as §1
In another series the test system is db/db mice. The series can be described thus: db/db mice, blood glucose after s.c. dosing. Format: in vivo, mouse. The note with it: db/db mice, s.c., 250 nmole/kg. As for the experimental part: The 60 female db/db B6BKS (D) Leprdb/J (strain 000697) mice for this study were approximately 8 to 9 weeks old at arrival (Jackson Laboratory, Bar Harbor, Me.). […] One group of 8 female mice served as the vehicle control and received the vehicle, 0.2% BSA in saline, pH 7.4. One additional group of 8 female mice received the positive control article, liraglutide, at a dose level of 50 nmoles/kg. The test articles, vehicle, and positive control article were administered on Day 1, at approximately 0, 7, and 24 hours during the study via subcutaneous injection at a dose volume of 6 mL/kg.
Clinical observations were conducted at receipt, prior to randomization, and daily from Days 1 to 5. Body weights were measured and recorded at receipt, prior to randomization, and daily from Days 1 to 5. Food consumption was measured and recorded daily from Days 1 to 5. Blood samples for glucose analysis were collected pretest (Day −3) and at 0, 1, 2, 4, 8, 10, 24, 48, 72, and 96 hours following the first dose on Day 1. At study termination all animals were euthanized and the carcasses were discarded without further evaluation.

Series [3] in a line: plasma protease stability, incubation in human plasma at 37 degC, LC-MS. The note with it: over 8 hrs. The format is in vitro ADME.
For series [4] the following is noted: in vivo; cited from earlier work.

pEC50, pIC50: −log10 of the molar value. “Also recorded” adds a separate entry of the source. Like-named read-outs stand apart in the source and are kept apart here. Non-standard residues stand in square brackets, D forms with d. Residues, ends and D or L forms follow the SMILES beside them. *: point of attachment. GlcA(β-D,1-O-dodecyl) = CCCCCCCCCCCCO[C@@H]1O[C@H](C(=O)*)[C@@H](O)[C@H](O)[C@H]1O; GlcA(β1-O-octyl) = CCCCCCCCO[C@@H]1O[C@H](C(=O)*)[C@@H](O)[C@H](O)[C@H]1O; Phe(2,4,6-Me3) = Cc1cc(C)c(C[C@H](N)C(=O)O)c(C)c1; Dmt = Cc1cc(O)cc(C)c1C[C@H](N)C(=O)O; hArg = N=C(N)NCCCC[C@H](N)C(=O)O; Nle = CCCC[C@H](N)C(=O)O; Ac5c = NC1(C(=O)O)CCCC1; Aib = CC(C)(N)C(=O)O

T2 sequence (P35372 whole entry): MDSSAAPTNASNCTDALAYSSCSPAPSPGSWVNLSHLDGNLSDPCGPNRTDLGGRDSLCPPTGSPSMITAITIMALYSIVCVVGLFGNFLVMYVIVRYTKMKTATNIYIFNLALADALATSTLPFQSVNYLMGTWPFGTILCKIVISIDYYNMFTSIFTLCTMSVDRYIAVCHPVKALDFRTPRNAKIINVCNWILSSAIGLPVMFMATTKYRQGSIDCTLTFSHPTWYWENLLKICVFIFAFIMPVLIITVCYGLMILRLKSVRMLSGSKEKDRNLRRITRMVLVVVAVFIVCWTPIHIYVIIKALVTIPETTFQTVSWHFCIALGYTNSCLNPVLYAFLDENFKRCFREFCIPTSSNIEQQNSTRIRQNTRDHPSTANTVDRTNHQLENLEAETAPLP
Experimental for blood Ca levels in rats: Each animal in a group was treated with a single sc injection of either vehicle or test agent.
Blood samples were collected via retro-orbital vein at 0.5, 1, 2, 4, and 5 hrs. post-injection and blood samples were stored on ice prior to centrifugation and testing for blood PO4 and Ca levels.

`CCCCCCCCCCCCO[C@@H]1O[C@H](C(=O)NCCCC[C@H](NC(=O)C(C)(C)NC(=O)[C@H](CCC(N)=O)NC(=O)[C@@H](NC(=O)[C@H](Cc2c[nH]c3ccccc23)NC(=O)[C@H](CCCNC(=N)N)NC(=O)[C@H](C)NC(=O)[C@H](CCCCNC(=N)N)NC(=O)[C@H](CCC(N)=O)NC(=O)[C@H](Cc2c[nH]cn2)NC(=O)[C@H](CCCC)NC(=O)[C@H](CC(C)C)NC(=O)[C@H](CCC(N)=O)NC(=O)[C@@H](NC(=O)[C@H](CCC(=O)O)NC(=O)C(C)(C)NC(=O)[C@@H](NC(=O)C2(N)CCCC2)C(C)C)[C@@H](C)CC)[C@@H](C)CC)C(=O)NC(C)(C)C(N)=O)[C@@H](O)[C@H](O)[C@H]1O` [EU-232, Ac5c1-Val2-Aib3-Glu4-Ile5-Gln6-Leu7-Nle8-His9-Gln10-hArg11-Ala12-Arg13-Trp14-Ile15-Gln16-Aib17-Lys(N-epsilon-1′-dodecylbeta-D-glucuronyl)18-Aib19-NH2] (H-[Ac5c]V[Aib]EIQL[Nle]HQ[hArg]ARWIQ[Aib]K(GlcA(β-D,1-O-dodecyl))[Aib]-NH2): at PTH receptor (PTHR1), the Characterization entry was “super-agonistic response; also recorded: super-agonistic activity; also recorded: agonist”. At PTH receptor (PTHR1), this compound had a pEC50 of 8.62. The Emax is 145% on PTH receptor (PTHR1) (SAOS-2, read-out: Maximal response (% PTHrP)) and 125% at PTH receptor (PTHR1) (SAOS-2, read-out: maximal response). Besides, the “time point of maximal statistically significant effect on blood phosphate” value in the series on blood PO4 levels in rats (sc, last time point in the assay) was 5 h. Also, the “blood PO4 levels” value in the series with blood PO4 levels in rats (single sc injection, 80 mcg groups) is listed as “transient but not statistically significant decrease”. Also, the “maximal decrease in blood PO4 levels from time 0 hr. level” value in the series on blood PO4 levels in rats (single sc injection, 5 hr. time point, dose not named in the sentence (320 group)) is given as 25-35%. Also, the blood calcium levels entry in the series with blood Ca levels in rats was “no elevation”.
As for `CCCCCCCCO[C@@H]1O[C@H](C(=O)NCCCC[C@H](NC(=O)[C@H](Cc2c(C)cc(C)cc2C)NC(=O)[C@@H]2CCCN2C(=O)[C@@H](N)Cc2c(C)cc(O)cc2C)C(N)=O)[C@@H](O)[C@H](O)[C@H]1O` [EU-A102, 2′,6′-dimethyl-L-tyrosyl-prolyl-2′,4′,6′-trimethyl-L-phenylalanyl-Nε-(1′-octyl β-D-glucuronyl)-L-lysine amide] (H-[Dmt]P[Phe(2,4,6-Me3)]K(GlcA(β1-O-octyl))-NH2), on mu opioid receptor [1], the “Characterization (MOP)” value is listed as “partial agonist” and the negative-log EC50 (pEC50) is 7.00. The pIC50 on mu opioid receptor [2] is 7.00.
For the compound `CCCCCCCCCCCCO[C@@H]1O[C@H](C(=O)NCCCC[C@H](NC(=O)[C@H](Cc2c(C)cc(C)cc2C)NC(=O)[C@@H]2CCCN2C(=O)[C@@H](N)Cc2c(C)cc(O)cc2C)C(N)=O)[C@@H](O)[C@H](O)[C@H]1O` [EU-A103, Dmt-Pro-Tmp-Lys(C12-glucuronyl)-NH2] (H-[Dmt]P[Phe(2,4,6-Me3)]K(GlcA(β-D,1-O-dodecyl))-NH2), the “Characterization (MOP)” value at mu opioid receptor [1] is recorded as “pure antagonist”. This compound also gave a negative logarithm of the IC50 (pIC50) on mu opioid receptor [2] of 7.07.
`CCCCCCCCCCCCO[C@@H]1O[C@H](C(=O)NCCCC[C@H](NC(=O)[C@@H](NC(=O)[C@H](Cc2ccccc2)NC(=O)[C@H](CCC(=O)O)NC(=O)[C@@H]2CCCCNC(=O)CC[C@H](NC(=O)[C@H](CC(=O)O)NC(=O)[C@H](CC(C)C)NC(=O)[C@H](Cc3ccc(O)cc3)NC(=O)[C@H](CCCCN)NC(=O)[C@H](CO)NC(=O)[C@H](Cc3ccc(O)cc3)NC(=O)[C@H](CC(=O)O)NC(=O)[C@H](CO)NC(=O)[C@@H](NC(=O)[C@H](Cc3ccccc3)NC(=O)[C@@H](NC(=O)CNC(=O)[C@H](CCC(N)=O)NC(=O)C(C)(C)NC(=O)[C@@H](N)Cc3c[nH]cn3)[C@@H](C)O)[C@@H](C)O)C(=O)N[C@@H](CCC(N)=O)C(=O)N[C@@H](C)C(=O)N[C@@H](C)C(=O)N2)[C@@H](C)CC)C(=O)N[C@@H](Cc2c[nH]c3ccccc23)C(=O)N[C@@H](CC(C)C)C(=O)N[C@@H](CC(C)C)C(=O)N[C@@H](CCC(N)=O)C(=O)N[C@H](C(N)=O)[C@@H](C)O)[C@@H](O)[C@H](O)[C@H]1O` [EU-A993]: the “Mean Blood Glucose” value in the series on db/db mice (0 hr) is recorded as 503 mg/dL; with db/db mice (10 hr), 305 mg/dL; in the series on db/db mice (24 hr), 324 mg/dL; in the series on db/db mice (48 hr) it was 426 mg/dL. Also, the “amount of intact compound versus time in human plasma” value in series [3] is recorded as “essentially no change”.
Turning to `CC[C@H](C)[C@H](NC(=O)[C@H](Cc1ccccc1)NC(=O)[C@H](CCC(=O)O)NC(=O)[C@H](CCCCN)NC(=O)[C@H](C)NC(=O)[C@H](C)NC(=O)[C@H](CCC(N)=O)NC(=O)CNC(=O)[C@H](CCC(=O)O)NC(=O)[C@H](CC(C)C)NC(=O)[C@H](Cc1ccc(O)cc1)NC(=O)[C@H](CO)NC(=O)[C@H](CO)NC(=O)[C@@H](NC(=O)[C@H](CC(=O)O)NC(=O)[C@H](CO)NC(=O)[C@@H](NC(=O)[C@H](Cc1ccccc1)NC(=O)[C@@H](NC(=O)CNC(=O)[C@H](CCC(=O)O)NC(=O)[C@H](C)NC(=O)[C@@H](N)Cc1c[nH]cn1)[C@@H](C)O)[C@@H](C)O)C(C)C)C(=O)N[C@@H](C)C(=O)N[C@@H](Cc1c[nH]c2ccccc12)C(=O)N[C@@H](CC(C)C)C(=O)N[C@H](C(=O)N[C@@H](CCCCN)C(=O)NCC(=O)N[C@@H](CCCNC(=N)N)C(N)=O)C(C)C` [GLP-1 (7-36), reference compound], the “amount of intact compound versus time in human plasma” value in series [3] is “rapid decrease”.
Consider `CC[C@H](C)[C@H](NC(=O)[C@H](CCC(=O)O)NC(=O)[C@H](CO)NC(=O)[C@@H](NC(=O)[C@@H](N)CO)C(C)C)C(=O)N[C@@H](CCC(N)=O)C(=O)N[C@@H](CC(C)C)C(=O)N[C@@H](CCSC)C(=O)N[C@@H](Cc1cnc[nH]1)C(=O)N[C@@H](CC(N)=O)C(=O)N[C@@H](CC(C)C)C(=O)NCC(=O)N[C@@H](CCCCN)C(=O)N[C@@H](Cc1cnc[nH]1)C(=O)N[C@@H](CC(C)C)C(=O)N[C@@H](CC(N)=O)C(=O)N[C@@H](CO)C(=O)N[C@@H](CCSC)C(=O)N[C@@H](CCC(=O)O)C(=O)N[C@@H](CCCN=C(N)N)C(=O)N[C@H](C(=O)N[C@@H](CCC(=O)O)C(=O)N[C@@H](Cc1c[nH]c2ccccc12)C(=O)N[C@@H](CC(C)C)C(=O)N[C@@H](CCCN=C(N)N)C(=O)N[C@@H](CCCCN)C(=O)N[C@@H](CCCCN)C(=O)N[C@@H](CC(C)C)C(=O)N[C@@H](CCC(N)=O)C(=O)N[C@@H](CC(=O)O)C(=O)N[C@H](C(=O)N[C@@H](Cc1cnc[nH]1)C(=O)N[C@@H](CC(N)=O)C(=O)N[C@@H](Cc1ccccc1)C(=O)O)C(C)C)C(C)C` [Teriparatide], for which the half life in series [4] is 19 min.

For orientation: pEC50 means the EC50 on a negative log10 scale, so that one unit is a factor of ten. A low value points to a large EC50. In general, pIC50 refers to the negative decadic logarithm of the IC50, by convention in mol/L. Low values mean a high IC50, high ones a low IC50.
